According to ChEMBL document CHEMBL1201862, “PubChem BioAssay data set” (2004):
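Tested at 5 concentrations; 48 h exposure; 96-well plates; endpoints linearly interpolated, else capped at highest concentration. GI50 = concentration required for 50% inhibition of growth.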 The source made the active and inactive calls. Rule as the data show it: active = GI50 up to about 1.1 µM and inactive = higher.

How the values were obtained:
Assay in all cases: inhibition of tumour cell growth, NCI panel, 48 h
EKVX = system: EKVX
LOX IMVI = system: LOX IMVI
SN12C = system: SN12C
HT-29 = system: HT-29
SK-MEL-2 = system: SK-MEL-2
NCI-H460 = system: NCI-H460
SF-539 = system: SF-539
KM12 = system: KM12
HCC 2998 = system: HCC 2998
M14 = system: M14
NCI-H226 = system: NCI-H226
SNB-75 = system: SNB-75
786-0 = system: 786-0
NCI-H23 = system: NCI-H23
SK-MEL-5 = system: SK-MEL-5

Measured: GI50

COc1ccc(C)cc1-c1ccc(-c2cc(C)ccc2OC)o1
inactive: EKVX > 100 µM | LOX IMVI > 100 µM | SN12C > 100 µM | HT-29 > 100 µM | SK-MEL-2 56.9 µM | NCI-H460 > 100 µM | SF-539 > 100 µM | KM12 > 100 µM | HCC 2998 > 100 µM | M14 > 100 µM | NCI-H226 > 100 µM | SNB-75 > 100 µM | 786-0 > 100 µM | NCI-H23 > 100 µM

CCOC(=O)C(=O)Nc1ccccc1OCC
inactive: EKVX > 100 µM | LOX IMVI > 100 µM | SN12C > 100 µM | HT-29 > 100 µM | SK-MEL-5 > 100 µM | SK-MEL-2 > 100 µM | NCI-H460 > 100 µM | SF-539 > 100 µM | KM12 > 100 µM | HCC 2998 > 100 µM | M14 > 100 µM | NCI-H226 > 100 µM | 786-0 > 100 µM | NCI-H23 > 100 µM

CN1N=CSC12C(=O)N(c1ccccc1)C(=O)N2c1ccccc1 (stereo not given)
inactive: EKVX > 100 µM | LOX IMVI > 100 µM | SN12C > 100 µM | HT-29 > 100 µM | SK-MEL-5 > 100 µM | SK-MEL-2 > 100 µM | NCI-H460 > 100 µM | SF-539 > 100 µM | KM12 > 100 µM | HCC 2998 > 100 µM | M14 > 100 µM | SNB-75 > 100 µM | 786-0 > 100 µM | NCI-H23 > 100 µM

CC1SC2=NC3=C(c4ccccc4C3=O)C(c3ccc(Cl)cc3)N2C1=O (stereo not given)
inactive: EKVX > 100 µM | SN12C 95.5 µM | HT-29 > 100 µM | SK-MEL-5 > 100 µM | SK-MEL-2 > 100 µM | NCI-H460 > 100 µM | KM12 > 100 µM | HCC 2998 > 100 µM | M14 > 100 µM | NCI-H226 > 100 µM | SNB-75 45.8 µM | 786-0 > 100 µM | NCI-H23 97.7 µM

CC(=O)OCC1OC(n2ccc(=O)[nH]c2=O)C(OC(C)=O)C(OC(C)=O)C1OC(C)=O (stereo not given)
inactive: EKVX > 100 µM | LOX IMVI > 100 µM | SN12C > 100 µM | HT-29 > 100 µM | SK-MEL-5 > 100 µM | SK-MEL-2 > 100 µM | NCI-H460 > 100 µM | KM12 > 100 µM | HCC 2998 > 100 µM | M14 > 100 µM | NCI-H226 9.16 µM | SNB-75 50.6 µM | 786-0 > 100 µM | NCI-H23 > 100 µM

COc1ccc(/C=C/C(=O)c2sc(NC(=S)NC(=O)c3ccccc3F)nc2C)cc1OC
inactive: EKVX > 100 µM | LOX IMVI > 100 µM | SN12C > 100 µM | SK-MEL-5 88.3 µM | SK-MEL-2 > 100 µM | NCI-H460 > 100 µM | SF-539 > 100 µM | KM12 > 100 µM | HCC 2998 > 100 µM | SNB-75 26.5 µM | 786-0 > 100 µM | NCI-H23 > 100 µM

C=C[C@H]1C=Cc2c(OC)cccc2[C@@H]1COP1(=S)NC(C)C(c2ccccc2)O1 (stereo not given in full)
inactive: EKVX > 100 µM | LOX IMVI 17.2 µM | SN12C > 100 µM | HT-29 79.6 µM | SK-MEL-5 44.2 µM | NCI-H460 > 100 µM | SF-539 > 100 µM | KM12 > 100 µM | HCC 2998 92 µM | M14 > 100 µM | NCI-H226 67.5 µM | SNB-75 > 100 µM | 786-0 > 100 µM | NCI-H23 50.1 µM
